Tests used:
[1] = test system: NET; assay: Whole cell patch clamp recording of NET currents in SCG neurons; assay type: cell-based, rat; conditions: 200 μM CdCl2, 5 μM KN93 15 min, 2 μM STO609 20 min
Experimental: Whole Cell Patch Clamp Recording of NET currents. Patch clamp experiments were performed using an amplifier Axopatch 200B with a low-pass filter set at 1 kHz. Quartz patch pipettes with 5-7 MΩ resistance were pulled by a programmable puller (model P-2000, Sutter Instruments Novato, Calif.) and filled with the internal solution containing (in mM): 120 KCl, 2 MgCl2, 10 HEPES, 2 MgATP, 30 dextrose and adjusted to pH 7.35. SCG neurons were washed twice with a control solution containing mMs 130 NaCl, 5 CaCl2, 0.5 MgCl2, 1.3 KCl, 10 HEPES, 34 dextrose adjusted to pH 7.35 before experiments. NET-mediated current was defined as the current recorded in control condition minus the current recorded in presence of 5 μM desipramine. Neurons were clamp at −50 mV and the NET-mediated current was recorded by stepping the membrane voltage to −120 mV for 500 ms before and after a 2 sec depolarizing step at −10 mV. NET-mediated current was studied in the control condition, in presence of 200 μM CdCl2, after 15 min preincubation with 5 μM KN93 and after 20 min preincubation with 2 μM STO609.

[2] = molecular target: T1, NET (Mus musculus, UniProt O55192); assay: NE transport assay in cortical synaptosomes; assay type: biochemical; conditions: for NE transport in KRH/Ca^2+ after drug treatment: 0.1-1 μM BIM, 5 μM KN93 or 10 μM W7, 15 min at 37° C.; for Effect on reduction in NET activity on switch from KRH/Ca^2+ to KRH/EGTA / Effect on elevation in NET activity triggered by addition of Ca^2+: pre-incubation with drug; for Effect on elevation in NET activity triggered by addition of Ca^2+: KRH/EGTA to KRH/Ca^2+
T1 construct: The pellets were collected as synaptosomes; from tissue; host or cells: mouse (C57/B16) brain cortex synaptosomes
T1 sequence (O55192 whole entry): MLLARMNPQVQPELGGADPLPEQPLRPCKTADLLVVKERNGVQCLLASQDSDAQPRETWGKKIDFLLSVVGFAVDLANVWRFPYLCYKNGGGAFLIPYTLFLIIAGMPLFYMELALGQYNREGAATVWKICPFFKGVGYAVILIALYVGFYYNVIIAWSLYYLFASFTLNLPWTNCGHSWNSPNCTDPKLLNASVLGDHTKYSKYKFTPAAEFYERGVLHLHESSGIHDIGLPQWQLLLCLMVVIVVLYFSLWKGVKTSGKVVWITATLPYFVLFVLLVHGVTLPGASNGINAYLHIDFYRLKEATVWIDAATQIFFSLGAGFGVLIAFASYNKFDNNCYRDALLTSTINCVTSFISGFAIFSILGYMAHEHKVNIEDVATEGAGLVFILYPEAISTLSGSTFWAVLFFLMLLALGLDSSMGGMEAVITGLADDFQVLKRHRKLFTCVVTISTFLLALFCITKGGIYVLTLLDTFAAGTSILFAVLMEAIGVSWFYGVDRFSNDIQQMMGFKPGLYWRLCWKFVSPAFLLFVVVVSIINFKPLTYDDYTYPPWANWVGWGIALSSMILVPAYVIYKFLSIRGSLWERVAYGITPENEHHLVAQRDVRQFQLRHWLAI
Experimental: Cell culture, transfection of cDNA or siRNA, generation of stable cell lines, preparation of cortical synaptosomes. CHO cells were maintained in DMEM/10% fetal bovine serum (FBS), 2 mM L-glutamine (L-Glu), 100 IU/ml penicillin, 100 μg/ml streptomycin (pen/strep). […]. The stable clones were selected using hygromycin B ([…], Invitrogen) and maintained in Ham's F12/10% FBS/L-Glu/pen/strep supplemented with Zeocin […] (Invitrogen). CAD-NET cells were generated by stably transfecting HA-NET in pcDNA3 into CAD cells and maintained in DMEM/F12/8% FBS/L-Glu/pen/strep/200 μg/ml of G418 (Mediatech). TransIT-LT1 transfection reagent (Mirus) was used for all transfections. All cells were plated on poly-D-lysine coated plates and incubated for 48 hrs for cDNA transfection and for 48 to 72 hrs for siRNA transfection prior to assays. For synaptosomal preparations, brain cortex was dissected from mice (C57/B16, Harlan) and homogenized in 10 mM HEPES, 0.32 M Sucrose, pH 7.4 using a Teflon pestle/homogenizer. Homogenates were centrifuged at 1,000 g, 5 min at 4° C., and then the supernatant were re-centrifuged at 16,000 g, 20 min at 4° C. The pellets were collected as synaptosomes.
Assay buffers, transport assays, Ca^2+ imaging. NE transport assays on synaptosomes (50-100 μg/assay reaction) or cells were described previously (Sung et al., 2003). Uptake assay was carried out in KRH/Ca^2+ (mM: 120 NaCl, 4.7 KCl, 1.2 KH2PO4, 10 HEPES, 1.2 MgSO4, 2.2 CaCl2, pH 7.4,) with 0.1 mM pargylnine, ascorbic acid, tropolone, and 1.8 mg/ml glucose, otherwise mentioned. KRH/EGTA is KRH with 0.2 mM EGTA and without CaCl2. When KRH/EGTA was used, KRH/Ca^2+ for the parallel experiment contained 0.2 mM EGTA as well. Uptake assays were initiated by addition of [^3H]-NE (1-[7,8-^3H] noradrenaline, Amersham Pharmacia) at 50 nM final concentration. For kinetics assays, 50, 100, 200 nM of [^3H]-NE, 400, 600, 800, 1,000, 1,200, 1,500 nM of 20% [^3H]-NE and 80% of unlabeled NE (Sigma) were used. Nonspecific uptake was defined using 1-10 μM desipramine. All assays were carried out at 37° C. for 10 min in triplicates. Ca^2+ imaging was performed as described previously (Apparsundaram et al., 2001). CHO cells were pre-loaded with […] fura-2/acetoxymethyl ester (fura-2/AM, Molecular Probe) and superfused with KRH/EGTA and 1 μM thapsigargin for 10 min. The medium was replaced with KRH/Ca^2+ or KRH/EGTA before measurement of intracellular Ca^2+. All experiments derive from at least 3 independent data and mean values were evaluated using a two-tailed Student's t-test or a one-way ANOVA, followed by Tukey's test, with p<0.05 considered significant (*). Data were analyzed using GraphPad Prism 4.
Protocols for restoration and depletion of Ca^2+ For uptake assay, synaptosomes were pre-incubated with drugs in KRH/Ca^2+. For increase of Ca^2+, synaptosomes were re-suspended in KRH/EGTA, transferred to fresh KRH/EGTA (EGTA to EGTA) or KRH/Ca^2+ (EGTA to Ca^2+), and incubated at 37° C. for 5 min prior to the addition of radiolabeled NE. NE uptake activity of synaptosomes in KRH/Ca^2+ was compared to the activity of synaptosomes in KRH/EGTA. For reduction of Ca^2+, synaptosomes were first resuspended in KRH/Ca^2+, divided into 2 aliquots, replaced with fresh KRH/Ca^2+ (Ca^2+ to Ca^2+) or KRH/EGTA (Ca^2+ to EGTA), and incubated at 37° C. for 5 min prior to the addition of radiolabeled NE. NE uptake activity of synaptosomes in KRH/EGTA was compared to the activity of synaptosomes in KRH/Ca^2+. Control cells were treated the same way except use of complete media with vehicle. Restoration of Ca^2+ for surface biotinylation was carried out by incubating cells in KRH/EGTA with 0.1-1 μM thapsigargin for 10 min at 37° C. to deplete Ca^2+. Cells were washed once with KRH/EGTA, replaced with KRH/EGTA or KRH/Ca^2+, and incubated for 1 min at RT to 5 min at 37° C. prior to biotinylation. […]

[3] = test system: NET; assay: NE transport assay in CAD-NET cells; assay type: cell-based, human; conditions: KRH/Ca^2+
Experimental: Uptake assay was carried out in KRH/Ca^2+ (mM: 120 NaCl, 4.7 KCl, 1.2 KH2PO4, 10 HEPES, 1.2 MgSO4, 2.2 CaCl2, pH 7.4,) with 0.1 mM pargylnine, ascorbic acid, tropolone, and 1.8 mg/ml glucose, otherwise mentioned. KRH/EGTA is KRH with 0.2 mM EGTA and without CaCl2. When KRH/EGTA was used, KRH/Ca^2+ for the parallel experiment contained 0.2 mM EGTA as well. […] Nonspecific uptake was defined using 1-10 μM desipramine. All assays were carried out at 37° C. for 10 min in triplicates. […] All experiments derive from at least 3 independent data and mean values were evaluated using a two-tailed Student's t-test or a one-way ANOVA, followed by Tukey's test, with p<0.05 considered significant (*).

[4] = test system: human NET; assay: Surface biotinylation of HA-NET in transiently transfected CHO cells; assay type: cell-based; conditions: for Effect on Ca^2+-depletion elicited reduction of NET surface density / Effect on Ca^2+-stimulated elevation of NET surface density: 5 μM KN93 30 min or 5 μM STO-609 1 hour; for Effect on Ca^2+-stimulated elevation of NET surface density: KRH/EGTA to KRH/Ca^2+; for Change of transporter surface density in response to Ca^2+ manipulations (addition or depletion): HA-tagged NET mutants in CHO cells
[5] = test system: NET; assay: Surface NET immunolabeling in cultured SCG neurons on high K+ depolarization; assay type: cell-based, rat; conditions: SCG cultures, high potassium buffer, preincubated with drug
Experimental: Primary neuronal culture, immunohistochemistry, electrophysiology. […] Surface-labeling of NET has been preformed by staining non-fixed SCG culture with anti-NET sera 43408 as described in (Savchenko et al., 2003). For detection of plasma membrane changes+/−depolarization, SCG neurons were preincubated with normal medium (2.5 mM K+) or in 40 mM or 90 mM K^+ for 15 min followed by incubation with NET 43408 antibody for 1 hr at RT in the absence of detergent. Cells were washed and fixed with 3% p-formaldehyde for 10 min prior to visualization of NET labeling using Cy3-conjugated anti-rabbit antibodies. Specimens from multiple fields were examined with a Zeiss LSM 510 Meta imaging system equipped with internal He/Ne and external Ar/Kr lasers. Images were collected were averaged across multiple fields of replicate experiments (n=3), pseudocolored for presentation, and pixel intensity calculated over processes immunopositive by double-staining for tubulin immunoreactivity in Metamorph.

[6] = test system: human NET; assay: NE transport assay in transiently transfected CHO cells; assay type: cell-based
Target sequence in this assay (P23975 48-617 limits assumed): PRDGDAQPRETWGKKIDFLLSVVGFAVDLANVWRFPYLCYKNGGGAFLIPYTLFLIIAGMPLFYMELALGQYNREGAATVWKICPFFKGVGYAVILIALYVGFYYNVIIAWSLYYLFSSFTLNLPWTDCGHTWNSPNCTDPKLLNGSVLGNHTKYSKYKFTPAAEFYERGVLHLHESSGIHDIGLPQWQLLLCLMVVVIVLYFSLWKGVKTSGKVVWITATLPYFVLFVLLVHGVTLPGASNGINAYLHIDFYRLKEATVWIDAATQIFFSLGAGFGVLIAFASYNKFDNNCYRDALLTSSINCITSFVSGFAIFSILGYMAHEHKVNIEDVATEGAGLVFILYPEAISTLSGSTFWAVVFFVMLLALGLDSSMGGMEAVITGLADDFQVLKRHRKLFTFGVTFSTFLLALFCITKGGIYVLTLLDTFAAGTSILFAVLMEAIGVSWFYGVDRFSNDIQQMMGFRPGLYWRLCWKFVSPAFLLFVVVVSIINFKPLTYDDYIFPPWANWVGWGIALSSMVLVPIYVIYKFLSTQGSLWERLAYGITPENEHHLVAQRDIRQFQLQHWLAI

[7] = test system: human NET; assay: [32P] metabolic labeling and immunoprecipitation of NET in stable CHO cells; assay type: cell-based; conditions: KRH/EGTA to KRH/Ca^2+ for 5 min
Experimental: Cell culture, transfection of cDNA or siRNA, generation of stable cell lines, preparation of cortical synaptosomes. CHO cells were maintained in DMEM/10% fetal bovine serum (FBS), 2 mM L-glutamine (L-Glu), 100 IU/ml penicillin, 100 μg/ml streptomycin (pen/strep). CHO-NET or CHO-NET T30A cells were generated by stably transfecting HA-NET or HA-NET T30A in pcDNA5/FRT (Invitrogen) into CHO-Flip-In cells (Invitrogen). The stable clones were selected using hygromycin B ([…], Invitrogen) and maintained in Ham's F12/10% FBS/L-Glu/pen/strep supplemented with Zeocin […] (Invitrogen). CAD-NET cells were generated by stably transfecting HA-NET in pcDNA3 into CAD cells and maintained in DMEM/F12/8% FBS/L-Glu/pen/strep/200 μg/ml of G418 (Mediatech). TransIT-LT1 transfection reagent (Mirus) was used for all transfections. All cells were plated on poly-D-lysine coated plates and incubated for 48 hrs for cDNA transfection and for 48 to 72 hrs for siRNA transfection prior to assays. […]
Biochemical analysis and phosphorylation. […] Phosphorylated bands were captured via Phosphoimager (Typhoon 9400, Molecular Dynamics/GE Healthcare Life Sciences) and analyzed using ImageQuant 5.2 (Molecular Dynamics). […] Exposed films of immunoblots were scanned using an Agfa Duoscan T1200 and the captured images processed in Adobe® Photoshop® and quantitated using NIH image.

## CdCl2
[1]
  Effect on increase in NET current triggered by prior depolarization: prevented the increase in NET current

## NC[C@H](O)c1ccc(O)c(O)c1 [NE, norepinephrine]
[2]; KRH/EGTA
  NE transport Vmax: 0.129+/−0.0129 pmol/mg protein/min

## bisindolylmaleimide I [BIM]
[2]
  NE transport in KRH/Ca^2+ after drug treatment: inhibited NE transport
  Effect on reduction in NET activity on switch from KRH/Ca^2+ to KRH/EGTA: failed to attenuate the loss of NET activity
  Effect on elevation in NET activity triggered by addition of Ca^2+: no ability to attenuate Ca^2+-stimulated NET activity

## O=C(O)c1ccc2c3c1cccc3c(=O)n1c3ccccc3nc21 [STO-609]
[1]
  Effect on increase in NET current triggered by prior depolarization: prevented the stimulation-elicited increase in NET currents
[1]; listed as STO609
  Effect on increase in NET current triggered by prior depolarization: converted the stimulation-induced increase into a stimulation-elicited decrease in NET currents
[3]
  Basal NE transport: did not influence basal NE transport
[4]; CHO cells
  Effect on Ca^2+-depletion elicited reduction of NET surface density: prevented a loss of NET from the surface
  Effect on Ca^2+-stimulated elevation of NET surface density: completely blocked the increase in surface NET protein

## NET T30E: human NET mutant designed to mimic constitutive phosphorylation at T30
[4]
  Change of transporter surface density in response to Ca^2+ manipulations (addition or depletion): failed to change

## KN93
[5]
  Depolarization triggered increase of surface NET density: failed to increase surface NET density
[1]
  Effect on increase in NET current triggered by prior depolarization: prevented the stimulation-elicited increase in NET currents
[2]
  NE transport in KRH/Ca^2+ after drug treatment: inhibited NE transport
  Effect on reduction in NET activity on switch from KRH/Ca^2+ to KRH/EGTA: blunted
  Effect on elevation in NET activity triggered by addition of Ca^2+: significantly blunted the elevation in NET activity
[2]; drug pre-treated synaptosomes, KRH/EGTA to KRH/Ca^2+ (2.2 mM final), 5 μM KN93
  NE transport after addition of Ca^2+, % of control: 140.5+/−11.2%
[2]; drug pre-treated synaptosomes, 5 μM KN93
  NE uptake when switched to KRH/EGTA, % of NE uptake in KRH/Ca^2+: 67.5+/−7.2%
[3]
  Basal NE transport: able to suppress NE transport
[4]; CHO cells
  Effect on Ca^2+-depletion elicited reduction of NET surface density: blocked
  Effect on Ca^2+-stimulated elevation of NET surface density: blocked

## NET T30A: human NET with T30 mutated to alanine, HA-tagged
[6]; 15 min Ca^2+ restoration including 10 min transport assay
  Recovery of NE transport after Ca^2+ depletion: failed to recover NE transport activity
[6]; transiently transfected CHO cells
  NE transport activity in KRH/Ca^2+: equivalent to wild-type NET
[7]
  Phosphorylation following Ca^2+ addition: no phosphorylation
[4]; CHO cells, n=3
  Basal surface expression versus wildtype hNET: 117+/−18.5%
[4]
  Change of transporter surface density in response to Ca^2+ manipulations (addition or depletion): complete lack of Ca^2+ sensitivity

— US20090156530A1, “Norepinepherine Transporter Mutants and Uses Thereof” (priority 2007, published 2009)
